Measurements taken from ChEMBL document CHEMBL1926684, “Constituents of Trigonostemon heterophyllus” (J Nat Prod, 2011).

What was measured:
[1] = system: HL-60; assay: Cytotoxicity against human HL60 cells by MTT assay; format: functional, cell-based
[2] = system: A549; assay: Cytotoxicity against human A549 cells by SRB assay; format: functional, cell-based

SMILES	IC50 [1] [µM]	IC50 [2] [µM]
C=C(C)[C@@]12OC3(c4ccccc4)O[C@@H]1[C@@H]1[C@H](OC(C)=O)[C@@](C)(O)[C@@H](OC(=O)c4ccccc4)[C@@]4(O)[C@@H](C[C@H](C)[C@@H]4OC(C)=O)[C@@]1(O3)[C@H](C)[C@@H]2OC(C)=O (relative stereo)	> 10	> 10
C=C(C)[C@@]1(OC(C)=O)[C@H](OC(C)=O)[C@@H]2[C@H](OC(C)=O)[C@@]3(C)O[C@@]4([C@@H]3OC(C)=O)[C@@H](OC(=O)c3ccccc3)[C@](C)(OC(C)=O)C[C@H]4[C@@]2(O)[C@H](C)[C@@H]1OC(=O)c1ccccc1 (relative stereo)	> 10	> 10
C=C(C)[C@@]12OC3(C)O[C@@H]1[C@@H]1[C@H](O)[C@@](C)(O)[C@@H](O)[C@@]4(O)[C@@H](C[C@H](C)[C@@H]4OC(C)=O)[C@@]1(O3)[C@H](C)[C@@H]2OC(=O)CCc1ccccc1 (relative stereo)	> 10	> 10
C=C(C)[C@@]1(OC(C)=O)[C@H](OC(C)=O)[C@@H]2[C@H](OC(C)=O)[C@@]3(C)O[C@@]4([C@@H]3OC(C)=O)[C@@H](OC(=O)c3ccccc3)[C@@H](C)C[C@H]4[C@@]2(O)[C@H](C)[C@@H]1OC(=O)c1ccccc1 [TRIGOHETERIN B]	> 10	> 10
C=C(C)[C@@]12OC3(c4ccccc4)O[C@@H]1[C@@H]1[C@H]4O[C@@]4(C)[C@@H](O)[C@]4(O)C(=O)[C@@H](C)C[C@H]4[C@@]1(O3)[C@H](C)[C@@H]2OC(=O)c1ccccc1 (relative stereo)	1.8	10
CC(C)=CC(=O)C(O)/C(C)=C/CC[C@](C)(O)C1CCC(C)=CC1=O (some centres not stated)	> 10	> 10
